This is an account of results in publication PMC11253866 (RSC Medicinal Chemistry, 2024).

Read-outs that look alike come from different tables or passages of the source. Marks after values point to notes of the source that are not given here.

Data set [1] can be described thus: Liver microsome stability assessment. It is filed as in vitro ADME, rat. The following applies: LCMS analysis of liver microsome assay mixtures.
The conditions of data set [2]: scale 0–6, cited from earlier work.

Turning to `CN(C)CCCOc1ccc(S(=O)(=O)N2c3ccccc3Oc3ccccc32)cc1.O=C(O)C(F)(F)F` [Compound 4b, 3-(4-((10H-Phenoxazin-10-yl)sulfonyl)phenoxy)-N,N-dimethylpropan-1-amine.TFA], the major metabolic route entry in data set [1] is recorded as “demethylation”.

`CN(C)CCCN1c2ccccc2CCc2ccc(Cl)cc21` [clomipramine]: the “CNS MPO score” value in data set [2] is given as 3.1.

Take `NCC1(CC(=O)O)CCCCC1` [Gabapentin]: the “CNS MPO score” value in data set [2] is recorded as 4.2 ^a; in data set [2] (listed as gabapentin), 4.2.

Consider `CNCCC=C1c2ccccc2CCc2ccccc21` [nortriptyline], for which, in data set [2], the “CNS MPO score” value is 3.3.

Take `CNCCCOc1ccc(S(=O)(=O)N2c3ccccc3Oc3ccccc32)cc1.O=C(O)C(F)(F)F` [Compound 4a, 3-(4-((10H-Phenoxazin-10-yl)sulfonyl)phenoxy)-N-methylpropan-1-amine.TFA]: in data set [1], the major metabolic route entry was “demethylation”.

For the molecule `COc1cccc(C2(O)CCCCC2CN(C)C)c1` (stereo not shown) [tramadol], the “CNS MPO score” value in data set [2] is given as 4.6.
